The record followed here is ChEMBL document CHEMBL1201862, “PubChem BioAssay data set” (2004).

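Five compound concentrations were applied to cells in 96-well plates for 48 hours; endpoints were derived by simple linear interpolation of the resulting dose-response curve. GI50 = concentration required for 50% inhibition of growth.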 Activity calls are given as the source filed them. No stated cut-off is given here; in the data, active = GI50 up to about 1.1 µM and inactive = higher.

Holding throughout (assay): inhibition of tumour cell growth, NCI panel, 48 h
The subject of test [1] is ACHN.
For test [2], the system named is CAKI-1.
The subject of test [3] is CCRF-CEM.
For test [4], the system named is COLO 205.
The subject of test [5] is DU-145.
For test [6], the system named is HCC 2998.
In test [7] the test system is HCT-116.
Test [8] has as its system HOP-62.
Test [9] has as its system Hs-578T.
For test [10], the system named is LOX IMVI.
For test [11], the system named is M14.
The test system of test [12] is MDA-N.
The test system of test [13] is MOLT-4.
For test [14], the system named is NCI-H460.
Test [15] concerns OVCAR-4.
Test [16] deals with OVCAR-5.
Test [17] concerns SF-268.
The subject of test [18] is SR.
Test [19] concerns UACC-257.
For test [20], the system named is BT-549.

Regarding `O=[N+]([O-])C(/C=C(\Cl)n1nnc2ccccc21)=C(/Cl)n1nnc2ccccc21`, the GI50 in test [1] is > 100 µM (inactive); in test [2] it was > 100 µM (inactive); in test [3] it was 76.4 µM (inactive); in [4], > 100 µM (inactive); in [5] it was > 100 µM (inactive); in [6], > 100 µM (inactive). Besides, the GI50 in test [7], in test [8], in test [9], in test [10], in test [11] and in test [12] was > 100 µM (inactive) each time. Further, the GI50 in [13], in test [14], in test [15], in test [16], in test [17] and in test [18] was > 100 µM (inactive) each time. In test [19], the GI50 was > 100 µM (inactive).
Regarding `Cc1cc2c(O)c(c1)COCc1cc(C)cc(c1O)COCc1cc(C)cc(c1O)COC2`, the GI50 in test [1] was > 100 µM (inactive); in test [20], > 100 µM (inactive); in [2] it was > 100 µM (inactive); in test [3] it was 32.1 µM (inactive); in [4] it was 96.2 µM (inactive); in test [5] it was > 100 µM (inactive). Besides, the GI50 in test [6] was > 100 µM (inactive); in [7], 32.7 µM (inactive); in [8] it was > 100 µM (inactive); in test [11], > 100 µM (inactive); in test [12], > 100 µM (inactive); in [13] it was > 100 µM (inactive). Further, the GI50 in test [14] is 92 µM (inactive); in [15], > 100 µM (inactive); in test [16], > 100 µM (inactive); in [17] it was > 100 µM (inactive); in test [18], 91 µM (inactive); in test [19], > 100 µM (inactive).
Take `CC(=O)O[C@@H]1C(=O)N(c2ccccc2)[C@@H]1c1cc2ccccc2c2ccccc12`: the GI50 in test [1] is 29.6 µM (inactive); in test [2], 5.25 µM (inactive); in [3] it was 25.6 µM (inactive); in [4], 16.7 µM (inactive); in test [5], 40.8 µM (inactive); in [6], 25.7 µM (inactive). The GI50 in [7] is 27.5 µM (inactive); in test [8] it was 29.6 µM (inactive); in [9], 27.7 µM (inactive); in test [10] it was 20 µM (inactive); in [11] it was 55.3 µM (inactive); in test [12], 43 µM (inactive). Moreover, the GI50 in test [13] was 12.3 µM (inactive); in test [14], 31.4 µM (inactive); in [15], 20.5 µM (inactive); in test [16] it was 50 µM (inactive); in [17], 44.3 µM (inactive); in test [18], 15.5 µM (inactive). The GI50 in [19] was 25.5 µM (inactive).
As to `Sc1nnc(CCCCCCCCc2nnc(S)o2)o1`, the GI50 in test [1], in test [20], in [2], in test [3], in [4] and in test [5] was > 100 µM (inactive) in each case. Moreover, the GI50 in [7], in test [8], in [10], in [11], in test [12] and in test [13] was > 100 µM (inactive) throughout. The GI50 in test [14], in test [15], in test [16], in test [17] and in [19] was > 100 µM (inactive) in each case.
On to `Cc1ccc(S(=O)(=O)OCCC2CN(C(=O)OCc3ccccc3)C(C)(C)O2)cc1` (configuration not stated), for which the GI50 was 12.9 µM (inactive) in test [1]; 1.89 µM (inactive) in [20]; 60.1 µM (inactive) in test [2]; 14.4 µM (inactive) in test [3]; 7.38 µM (inactive) in test [4]; 57.8 µM (inactive) in test [5]. The GI50 in test [6] is 6.07 µM (inactive); in test [7] it was 7.23 µM (inactive); in test [10], 10.8 µM (inactive); in [11], 7.38 µM (inactive); in test [12], 12.5 µM (inactive); in test [13], 2.81 µM (inactive). The GI50 in test [14] was 3.47 µM (inactive); in test [15] it was 6.68 µM (inactive); in test [16], > 100 µM (inactive); in test [18] it was 4.47 µM (inactive); in test [19], 7.41 µM (inactive).
Turning to `COc1cc(CNC(=S)CCCCCCCCCCC(C)C)ccc1O`, the GI50 in test [1] is 58.7 µM (inactive); in [3], 1.19 µM (inactive); in test [4], 70.6 µM (inactive); in test [5] it was > 100 µM (inactive); in test [6] it was 63.1 µM (inactive); in test [7], 31.6 µM (inactive). The GI50 in test [8] is 58.6 µM (inactive); in test [9] it was 22.2 µM (inactive); in [10], 41.9 µM (inactive); in test [11], 48.4 µM (inactive); in [13], 5.92 µM (inactive); in test [14] it was 42.9 µM (inactive). Besides, the GI50 in test [15] is 53.6 µM (inactive); in test [16] it was > 100 µM (inactive); in [17] it was > 100 µM (inactive); in test [18], 3.01 µM (inactive); in test [19], 38.5 µM (inactive).
Consider `COC(=N)C12C(N)=NC(OC)(OC)C1(C#N)C21C(=O)N(c2ccccc2)N=C1C` (configuration not stated), for which the GI50 was > 100 µM (inactive) in [1]; > 100 µM (inactive) in [20]; > 100 µM (inactive) in test [2]; 36.2 µM (inactive) in [3]; > 100 µM (inactive) in test [4]; > 100 µM (inactive) in test [5]. The GI50 in [6], in [7], in test [8], in test [11], in [12] and in test [13] was > 100 µM (inactive) in each case. For the same compound, the GI50 in test [14] was > 100 µM (inactive); in [15], > 100 µM (inactive); in test [16], > 100 µM (inactive); in test [17] it was > 100 µM (inactive); in [18], 37.6 µM (inactive); in test [19] it was > 100 µM (inactive).
As to `COC(=O)c1c(O)ccc2c1c1cc3ccccc3cc1n2Cc1cc(OC)cc(OC)c1`, the GI50 is 1.74 µM (inactive) in test [1]; 2.18 µM (inactive) in test [2]; 1.66 µM (inactive) in test [3]; 10.1 µM (inactive) in test [4]; 2.53 µM (inactive) in [5]; 3.88 µM (inactive) in test [6]. Also, the GI50 in test [7] is 1.13 µM (inactive); in test [8], 3.23 µM (inactive); in test [9], 2.45 µM (inactive); in test [10], 9.31 µM (inactive); in [11], 2.25 µM (inactive); in [12] it was 0.43 µM (active). In addition, the GI50 was 21.7 µM (inactive) in test [13]; 2.57 µM (inactive) in test [14]; 9.84 µM (inactive) in test [15]; 9.64 µM (inactive) in [16]; 2.75 µM (inactive) in test [17]; 1.04 µM (active) in test [18]. Also, the GI50 in [19] was 9.73 µM (inactive).
For the compound `CCCCc1c(C(=O)OC(C)(C)C)cc(C#Cc2cc(C(=O)OC(C)(C)C)c(CCCC)c(C(=O)OC(C)(C)C)c2)cc1C(=O)OC(C)(C)C`, the GI50 in [1], in test [20], in test [2], in test [4], in [5] and in [6] was > 100 µM (inactive) in each case. Also, the GI50 in [7], in test [8], in [11], in test [12], in test [14] and in [15] was > 100 µM (inactive) in each case. The GI50 in test [16], in [17] and in test [19] was > 100 µM (inactive) each time.
For the compound `O=C(O)C1=NN(c2ccc(S(=O)(=O)O)cc2)C2(C1)SCC(=O)N2c1nc2ccccc2s1` (configuration not stated), the GI50 in [1], in test [20], in [2], in [3], in test [4] and in test [5] was > 100 µM (inactive) throughout. Also, the GI50 in [6], in test [7], in test [8], in test [9], in [10] and in test [11] was > 100 µM (inactive) each time. Also, the GI50 in test [13], in [14], in test [15], in [16], in test [17] and in test [18] was > 100 µM (inactive) in each case. Besides, the GI50 in [19] was > 100 µM (inactive).
As for `C=C(C)CCC(O)[C@](C)(O)[C@H]1[C@H](O)C[C@@]2(C)[C@@H]3CCc4c(cc(OC5OC(CO)C(O)C(O)C5O)c(O)c4C)C3(C)C(=O)C[C@]12C` (some centres not stated), the GI50 in test [1], in [20], in test [2], in test [3], in test [4] and in test [5] was > 100 µM (inactive) throughout. Further, the GI50 in [6], in test [7], in test [8], in [10], in test [11] and in test [12] was > 100 µM (inactive) throughout. In addition, the GI50 in test [13], in test [14], in test [15], in test [16], in [17] and in [18] was > 100 µM (inactive) throughout. Also, the GI50 in test [19] was > 100 µM (inactive).
